Results taken from the NIST ThermoML archive (doi:10.1016/j.tca.2008.10.009).

Settings: Crystal, Rate of evaporation

vapor or sublimation pressure (420.7 K): 0.0009 kPa
vapor or sublimation pressure (440.3 K): 0.0029 kPa
vapor or sublimation pressure (469.9 K): 0.0425 kPa
vapor or sublimation pressure (499.2 K): 0.5263 kPa
vapor or sublimation pressure (517.5 K): 2.162 kPa
Structure (SMILES): CC(C)C[C@H](N)C(=O)O [L-leucine]
